In PubChem BioAssay AID1963875 (Molecular Pharmacology Branch, DTP, NCI, 2024):

Test system: KRAS-mutant PDC complex spheroid viability
Test: Anticancer human tumor 186277-243-T-J2-PDC patient-derived colon adenocarcinoma cell line growth inhibition [KRAS2]
Settings: for IC50: curve of first compound; for viability, T/C: stronger effect = lower value
In short: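 KRAS-mutant tumor cells were grown as spheroids with HUVEC endothelial cells and human MSCs as stroma. Targeted agents were tested alone and with KRAS pathway inhibitors. Doses started at or near clinical Cmax, or 10 microM, descending half-log.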

[1] = second compound 0.1 µM, first compound 0.0316 µM
[2] = second compound 0.316 µM, first compound 0.0316 µM
[3] = second compound 1 µM, first compound 0.0316 µM
[4] = second compound 3.16 µM, first compound 0.0316 µM
[5] = second compound 10 µM, first compound 0.0316 µM
[6] = second compound 0.1 µM, first compound 0.1 µM
[7] = second compound 0.1 µM, first compound 0.316 µM
[8] = second compound 0.1 µM, first compound 1 µM
[9] = second compound 0.1 µM, first compound 3.16 µM
[10] = second compound 0.1 µM, first compound 10 µM
[11] = second compound 0.316 µM, first compound 0.1 µM
[12] = second compound 0.316 µM, first compound 0.316 µM
[13] = second compound 0.316 µM, first compound 1 µM
[14] = second compound 0.316 µM, first compound 3.16 µM
[15] = second compound 0.316 µM, first compound 10 µM
[16] = second compound 1 µM, first compound 0.1 µM
[17] = second compound 1 µM, first compound 0.316 µM
[18] = second compound 1 µM, first compound 1 µM
[19] = second compound 1 µM, first compound 3.16 µM
[20] = second compound 1 µM, first compound 10 µM
[21] = second compound 3.16 µM, first compound 0.1 µM
[22] = second compound 3.16 µM, first compound 0.316 µM
[23] = second compound 3.16 µM, first compound 1 µM
[24] = second compound 3.16 µM, first compound 3.16 µM
[25] = second compound 3.16 µM, first compound 10 µM
[26] = second compound 10 µM, first compound 0.1 µM
[27] = second compound 10 µM, first compound 0.316 µM
[28] = second compound 10 µM, first compound 1 µM
[29] = second compound 10 µM, first compound 3.16 µM
[30] = second compound 10 µM, first compound 10 µM
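For viability, T/C in this document: viability read after seven days of compound exposure; 100% = DMSO vehicle-treated spheroids so lower means less viable.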

## CC(=O)Nc1cccc(-n2c(=O)n(C3CC3)c(=O)c3c(Nc4ccc(I)cc4F)n(C)c(=O)c(C)c32)c1 + CC1OCC2(CCN(c3cnc(Sc4ccnc(N)c4Cl)c(N)n3)CC2)C1N
Second compound 0.1 µM
  IC50: 0.368 nM
Second compound 0.316 µM
  IC50: 0.199 nM
Second compound 1 µM
  IC50: 0.128 nM
Second compound 3.16 µM
  IC50: < 0.1 nM
Second compound 10 µM
  IC50: < 0.1 nM
Second compound 0.1 µM, first compound 0.0001 µM
  viability, T/C: 116%
Second compound 0.1 µM, first compound 0.000316 µM
  viability, T/C: 56.1%
Second compound 0.1 µM, first compound 0.001 µM
  viability, T/C: 9.68%
Second compound 0.1 µM, first compound 0.00316 µM
  viability, T/C: 5%
Second compound 0.1 µM, first compound 0.01 µM
  viability, T/C: 1.6%
[1]
  viability, T/C: 1.06%
Second compound 0.316 µM, first compound 0.0001 µM
  viability, T/C: 86.3%
Second compound 0.316 µM, first compound 0.000316 µM
  viability, T/C: 25.9%
Second compound 0.316 µM, first compound 0.001 µM
  viability, T/C: 5.13%
Second compound 0.316 µM, first compound 0.00316 µM
  viability, T/C: 3.78%
Second compound 0.316 µM, first compound 0.01 µM
  viability, T/C: 3.34%
[2]
  viability, T/C: 0.76%
Second compound 1 µM, first compound 0.0001 µM
  viability, T/C: 60.8%
Second compound 1 µM, first compound 0.000316 µM
  viability, T/C: 10.9%
Second compound 1 µM, first compound 0.001 µM
  viability, T/C: 4.8%
Second compound 1 µM, first compound 0.00316 µM
  viability, T/C: 1.82%
Second compound 1 µM, first compound 0.01 µM
  viability, T/C: 0.88%
[3]
  viability, T/C: 0.76%
Second compound 3.16 µM, first compound 0.0001 µM
  viability, T/C: 24.4%
Second compound 3.16 µM, first compound 0.000316 µM
  viability, T/C: 5.11%
Second compound 3.16 µM, first compound 0.001 µM
  viability, T/C: 2.57%
Second compound 3.16 µM, first compound 0.00316 µM
  viability, T/C: 1.18%
Second compound 3.16 µM, first compound 0.01 µM
  viability, T/C: 0.59%
[4]
  viability, T/C: 0.6%
Second compound 10 µM, first compound 0.0001 µM
  viability, T/C: 10%
Second compound 10 µM, first compound 0.000316 µM
  viability, T/C: 3.24%
Second compound 10 µM, first compound 0.001 µM
  viability, T/C: 1.99%
Second compound 10 µM, first compound 0.00316 µM
  viability, T/C: 0.72%
Second compound 10 µM, first compound 0.01 µM
  viability, T/C: 0.68%
[5]
  viability, T/C: 0.55%

## COC(=O)c1ccc2c(C(=Nc3ccc(N(C)C(=O)CN4CCN(C)CC4)cc3)c3ccccc3)c(O)[nH]c2c1 + CC1OCC2(CCN(c3cnc(Sc4ccnc(N)c4Cl)c(N)n3)CC2)C1N
Second compound 0.1 µM
  IC50: 2140 nM
Second compound 0.316 µM
  IC50: 1850 nM
Second compound 1 µM
  IC50: 1510 nM
Second compound 3.16 µM
  IC50: 692 nM
Second compound 10 µM
  IC50: 368 nM
[1]
  viability, T/C: 105%
[6]
  viability, T/C: 108%
[7]
  viability, T/C: 116%
[8]
  viability, T/C: 120%
[9]
  viability, T/C: 18%
[10]
  viability, T/C: 12.9%
[2]
  viability, T/C: 108%
[11]
  viability, T/C: 105%
[12]
  viability, T/C: 113%
[13]
  viability, T/C: 98.9%
[14]
  viability, T/C: 4.62%
[15]
  viability, T/C: 10.2%
[3]
  viability, T/C: 116%
[16]
  viability, T/C: 108%
[17]
  viability, T/C: 100%
[18]
  viability, T/C: 74.8%
[19]
  viability, T/C: 4.4%
[20]
  viability, T/C: 4.44%
[4]
  viability, T/C: 103%
[21]
  viability, T/C: 93.2%
[22]
  viability, T/C: 94%
[23]
  viability, T/C: 29.4%
[24]
  viability, T/C: 1.17%
[25]
  viability, T/C: 1.68%
[5]
  viability, T/C: 83%
[26]
  viability, T/C: 82%
[27]
  viability, T/C: 54.5%
[28]
  viability, T/C: 15.6%
[29]
  viability, T/C: 0.48%
[30]
  viability, T/C: 0.71%

## COc1cc(Nc2ncc3c(n2)-c2ccc(Cl)cc2C(c2c(F)cccc2OC)=NC3)ccc1C(=O)O + CC1OCC2(CCN(c3cnc(Sc4ccnc(N)c4Cl)c(N)n3)CC2)C1N
Second compound 0.1 µM
  IC50: < 31.6 nM
Second compound 0.316 µM
  IC50: < 31.6 nM
Second compound 1 µM
  IC50: < 31.6 nM
Second compound 3.16 µM
  IC50: < 31.6 nM
Second compound 10 µM
  IC50: < 31.6 nM
[1]
  viability, T/C: 36%
[6]
  viability, T/C: 32.9%
[7]
  viability, T/C: 33%
[8]
  viability, T/C: 35.2%
[9]
  viability, T/C: 38.8%
[10]
  viability, T/C: 33.8%
[2]
  viability, T/C: 30.3%
[11]
  viability, T/C: 29.7%
[12]
  viability, T/C: 24.5%
[13]
  viability, T/C: 27.9%
[14]
  viability, T/C: 30.4%
[15]
  viability, T/C: 27.5%
[3]
  viability, T/C: 22.2%
[16]
  viability, T/C: 22.8%
[17]
  viability, T/C: 21.1%
[18]
  viability, T/C: 22.1%
[19]
  viability, T/C: 22.6%
[20]
  viability, T/C: 21.7%
[4]
  viability, T/C: 17.1%
[21]
  viability, T/C: 18%
[22]
  viability, T/C: 15.8%
[23]
  viability, T/C: 15.7%
[24]
  viability, T/C: 16.1%
[25]
  viability, T/C: 16.2%
[5]
  viability, T/C: 13.7%
[26]
  viability, T/C: 13.9%
[27]
  viability, T/C: 11.8%
[28]
  viability, T/C: 11.4%
[29]
  viability, T/C: 12.1%
[30]
  viability, T/C: 11.9%

## O=C(c1cc(Cc2n[nH]c(=O)c3ccccc23)ccc1F)N1CCN(C(=O)C2CC2)CC1 + CC1OCC2(CCN(c3cnc(Sc4ccnc(N)c4Cl)c(N)n3)CC2)C1N
Second compound 0.1 µM
  IC50: 6480 nM
Second compound 0.316 µM
  IC50: 6080 nM
Second compound 1 µM
  IC50: 3950 nM
Second compound 3.16 µM
  IC50: 1900 nM
Second compound 10 µM
  IC50: 614 nM
[1]
  viability, T/C: 118%
[6]
  viability, T/C: 112%
[7]
  viability, T/C: 114%
[8]
  viability, T/C: 109%
[9]
  viability, T/C: 81%
[10]
  viability, T/C: 31.3%
[2]
  viability, T/C: 129%
[11]
  viability, T/C: 124%
[12]
  viability, T/C: 106%
[13]
  viability, T/C: 115%
[14]
  viability, T/C: 75%
[15]
  viability, T/C: 28.8%
[3]
  viability, T/C: 122%
[16]
  viability, T/C: 113%
[17]
  viability, T/C: 126%
[18]
  viability, T/C: 103%
[19]
  viability, T/C: 56.8%
[20]
  viability, T/C: 23.8%
[4]
  viability, T/C: 92.2%
[21]
  viability, T/C: 94.9%
[22]
  viability, T/C: 87.4%
[23]
  viability, T/C: 70.3%
[24]
  viability, T/C: 33.9%
[25]
  viability, T/C: 16.3%
[5]
  viability, T/C: 86.7%
[26]
  viability, T/C: 66%
[27]
  viability, T/C: 62.9%
[28]
  viability, T/C: 45.8%
[29]
  viability, T/C: 24.9%
[30]
  viability, T/C: 14.1%
